pIC50: −log10 of the molar value. Values joined by “and” are separate entries in the source; they are usually repeats but may differ in a detail not shown here. Equal values may be shown once. Read-outs that look alike come from different tables or passages of the source.
Columns and labels:
human PARG = human PARG (Homo sapiens (Human), UniProt Q86W56); assay: Gel-based PARG activity assay; format: biochemical
Description: FIGS. 9a & 9b show structure-activity relationships (SAR) of compounds from five main chemotypes. (FIG. 9a) A total of 34 representative HTS hits and commercially available analogues from each chemotype (FIG. 7 and FIG. 29) were analyzed using the gel-based PARG activity assay. This gel-based assay directly monitors the change of PARylation status of PARP1 as a substrate of PARG. […] The reaction was quenched after a 30 min incubation at room temperature by adding SDS-PAGE sample buffer. PARylated PARP1C runs as a smear on SDS-PAGE that is reduced to a single band by PARG treatment. […] (FIG. 9b) Quantification of the dose-response PARG inhibition by JA2-3 using the gel-based PARG activity assay. hPARG (1 nM) was preincubated with increasing concentrations (0.032-1 μM) of JA2-3 for 1 hr at room temperature before PARylated PARP1C (500 nM) was added. The reaction was quenched after a 30 min incubation at room temperature. PARylated PARP1C migrates slower than unmodified PARP1C and was quantified using ImageJ. To determine the IC50 value, the dose-response data were plotted as a function of JA2-3 concentration and fitted to the four-parameter logistic equation using SigmaPlot. The rate of the PARG-dependent signal loss in the TR-FRET PAR turnover assay is not equivalent to the steady-state rate of PAR turnover, because the TR-FRET assay can't detect signal loss until the length of PAR chains become shorter than 7 ADP-ribose units. Therefore, the gel-based PARG activity assay to accurately determine the IC50 values throughout the present disclosure.
Gel-based PARG activity assay. PARP1C (2 μM) is enzymatically auto-modified in a reaction containing the PARP1 DBD (2 μM), a 24 mer nicked DNA oligo (2 μM), and NAD+(300 μM) for 1 hr at 37° C., as described previously (Kim et al., 2012). Human PARG^389-976 (1 nM) was pre-incubated with compounds for 1 hr at room temperature. The reaction was initiated by addition of PARylated PARP1 (final concentration of 500 nM) and quenched after 30 min incubation at room temperature by adding SDS-PAGE sample buffer. The gel was visualized by sypro-ruby staining (Kim et al., 2012) and the retained PARylated PARP1C species were quantified using ImageJ (Schneider et al., 2012).
PARylated PARP1C that migrates slower than unmodified PARP1C was quantified. […] The IC50 values were determined by fitting the dose-response data for each compound to a four-parameter logistic equation using SigmaPlot (Systat Software Inc.).
To test specificity of JA2131, human PARG^389-976 (1 nM) was pre-incubated with JA2131 (5, 10, and 20 μM) in the presence and absence of 0.1% Triton-X 100 or 0.1 mg/ml BSA for 1 hr at room temperature. The reaction was initiated, quenched, visualized, and quantified as described above.

rat PARG = rat PARG (Rattus norvegicus (Rat), UniProt Q9QYM2); assay: High-throughput screening with the TR-FRET PAR turnover assay; format: biochemical; details: 6.7 μM compound; 12.5 nM and 25 nM rat PARG
Description: The NCI Diversity Set II library (1,990 compounds) was screened against rat PARG then human PARG was used to validate and optimize PARG inhibitors. The accuracy of the screen was determined by the calculated Z-scores of control reactions, which were between 0.6 and 0.8 throughout the plates, indicative of high reproducibility (FIG. 2a). […] The rate of TR-FRET signal loss in the presence of each candidate inhibitor was compared to that of control reactions containing DMSO only (FIG. 2b). Initially, 104 compounds were selected that inhibited PARG enzymatic activity at both enzyme concentrations. Thirty-nine of these compounds were discarded as they altered fluorescence intensity of donor or acceptor (F520 and F495) by >40% at the first time point. […] For the selected compounds, gel-based assays were performed to directly monitor inhibition of PARP1 dePARylation by PARG (FIG. 2c).
TR-FRET PAR turnover assay. For a high-throughput screening (HTS) of PARG inhibitors, a high-throughput PARG activity assay was developed using the TR-FRET system. Briefly, the fluorescein molecule (FITC) was enzymatically incorporated into PARP1 in a reaction containing PARP1C (2 μM), the PARP1 DBD (2 μM), a 24 mer nicked DNA oligo (2 μM), and a mixture of unlabeled NAD^+ (Sigma) and FITC-NAD^+ (Trevigen) substrates (total NAD+concentration of 100 μM).
After incubation for 1 hr at 37° C., PARylated PARP1 was desalted using a PD-10 desalting column (GE healthcare) in a buffer containing 25 mM Tris-HCl (pH 7.5), 50 mM NaCl, and 0.01% NP-40 and used as the FRET acceptor. The biotin-tagged BRCT1 domain of XRCC1 (BRCT1, 5 nM) was conjugated with an equimolar concentration of Tb^3+-chelated streptavidin (Life Technologies) in TR-FRET assay buffer (FRET donor). […] The reaction was started by the addition of the FRET pair of FITC-labeled PARP1 (42 nM) and Tb^3+-BRCT1 (5 nM). The TR-FRET signal was subsequently monitored for 60 min.
High-throughput screening of PARG inhibitors. Small molecule inhibitors of PARG were identified by high-throughput screening (HTS) using the TR-FRET PAR turnover assay. Compounds (final concentration of 6.7 μM) from the NCI Diversity Set II library (1,990 compounds) were predispensed into black polystyrene 384-well plates (Corning) using a Hummingbird liquid handler (Digilab). Then, 10 μL of rat PARG^385-972 (12.5 nM and 25 nM) was subsequently dispensed into plates using a multi-drop combi nL reagent dispenser (Thermo Scientific), and incubated with compounds for 1 hr at 4° C. The reaction was initiated by the addition of 20 μl of the premixed FRET pair of FITC-labeled PARP1 (42 nM) and Tb^3+-BRCT1 (5 nM), and the TR-FRET signal was monitored every four minutes for 40 min (11 data points). Hits were selected by visually comparing the rate of the TR-FRET signal decrease in each well to that of negative control reactions containing DMSO (FIG. 1b and see Text for details). The HTS was performed at the High-Throughput Screening Core (HTSC) at Washington University School of Medicine.

PARG = details: Falsig et al., 2004; read-out: IC50 of PARG inhibition; cited from earlier work
[1] = Table 1, PARG inhibition, read-out: IC50
[2] = hPARG 1 nM, PARylated PARP1C 500 nM
[3] = hPARG 1 nM, PARylated PARP1C 500 nM, read-out: IC50 of PARG inhibition

Chain of human PARG (Q86W56 389-976): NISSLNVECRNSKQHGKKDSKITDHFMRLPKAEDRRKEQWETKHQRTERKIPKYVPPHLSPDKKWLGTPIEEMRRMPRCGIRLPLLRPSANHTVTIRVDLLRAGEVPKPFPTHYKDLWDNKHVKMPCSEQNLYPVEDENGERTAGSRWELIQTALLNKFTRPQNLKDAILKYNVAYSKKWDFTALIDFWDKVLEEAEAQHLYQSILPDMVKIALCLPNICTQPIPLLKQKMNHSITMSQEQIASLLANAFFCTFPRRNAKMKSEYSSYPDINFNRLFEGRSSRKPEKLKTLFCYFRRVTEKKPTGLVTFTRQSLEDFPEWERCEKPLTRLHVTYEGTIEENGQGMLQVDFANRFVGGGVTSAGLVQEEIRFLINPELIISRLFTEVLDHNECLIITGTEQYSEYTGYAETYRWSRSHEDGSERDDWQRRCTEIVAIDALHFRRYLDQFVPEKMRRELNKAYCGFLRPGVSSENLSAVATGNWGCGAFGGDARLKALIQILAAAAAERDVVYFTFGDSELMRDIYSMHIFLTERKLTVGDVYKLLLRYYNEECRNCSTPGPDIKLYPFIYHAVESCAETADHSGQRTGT
Chain of rat PARG (Q9QYM2 385-972): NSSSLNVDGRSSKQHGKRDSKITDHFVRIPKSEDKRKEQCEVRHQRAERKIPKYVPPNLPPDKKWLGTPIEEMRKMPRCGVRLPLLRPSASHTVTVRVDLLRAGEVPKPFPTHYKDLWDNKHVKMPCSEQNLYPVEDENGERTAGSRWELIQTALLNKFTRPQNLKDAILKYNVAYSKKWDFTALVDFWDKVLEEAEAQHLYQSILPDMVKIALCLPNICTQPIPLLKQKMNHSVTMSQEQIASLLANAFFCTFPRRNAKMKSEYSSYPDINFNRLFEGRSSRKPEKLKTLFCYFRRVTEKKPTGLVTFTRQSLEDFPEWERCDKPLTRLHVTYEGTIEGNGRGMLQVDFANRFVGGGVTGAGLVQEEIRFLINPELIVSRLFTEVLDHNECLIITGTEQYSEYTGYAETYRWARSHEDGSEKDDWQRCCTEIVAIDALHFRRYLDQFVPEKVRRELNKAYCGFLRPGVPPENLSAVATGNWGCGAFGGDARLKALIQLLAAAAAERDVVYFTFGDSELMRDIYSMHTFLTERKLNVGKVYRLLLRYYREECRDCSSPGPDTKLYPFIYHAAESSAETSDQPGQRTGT

Row | Structure (SMILES) | pIC50 (human PARG; [1]) | ~100% PARG inhibition at both 12.5 nM and 25 nM (rat PARG) | also measured
1 | Cn1c(=O)c2[nH]c(CCCC(=O)O)nc2n(C)c1=O [JA2-2] | < 4.00 | – | –
2 | O=S(=O)(O)c1cc(O)c2c(N=Cc3ccccc3O)cc(S(=O)(=O)O)cc2c1 [Compound 88947] | – | Yes | –
3 | CCC(=O)OCN1C(=O)C=CC1=O [Compound 19630] | – | Yes | –
4 | Cn1c(=O)c2[nH]c(SCc3c(Cl)cccc3Cl)nc2n(C)c1=O [LPF-I-68-1] | < 4.60 | – | –
5 | Cn1c(=O)c2[nH]c(SCCN3C(=O)c4ccccc4C3=O)nc2n(C)c1=O [LPF-I-81-1] | < 4.60 | – | –
6 | CCOC(=O)CCSc1nc2c([nH]1)c(=O)n(C)c(=O)n2C [LPF-I-83-1] | < 4.60 | – | –
7 | O=C1C(Cl)=C(Nc2ccc(S(=O)(=O)Nc3ccccn3)cc2)C(=O)c2ccccc21 [Compound 45382] | – | Yes | –
8 | O=[N+]([O-])c1ccc(S(=O)(=O)Cc2ccccc2)c2nonc12 [Compound 228148] | – | Yes | –
9 | Cn1c(=S)[nH]c2nc(SCCN3CCCC3)[nH]c2c1=O [JA2-4] | 6.05 | – | IC50 of PARG inhibition (human PARG; [2]): sub-micromolar; pIC50 (human PARG; [3]): 6.00 to 7.00 and 6.05
10 | Cn1c(=O)[nH]c2nc(SCCN3CCOCC3)[nH]c2c1=O [JA2120] | 4.59 | – | pIC50 (human PARG; [3]): 4.59
11 | Cn1c(=S)c2[nH]c(SCCN3CCOCC3)nc2n(C)c1=O [LPF-I-146-1] | 6.40 | – | –
12 | Cn1c(=O)c2[nH]c(SCCN3CCOCC3)nc2n(C)c1=S [JA2-5] | 6.00 | Yes | IC50 of PARG inhibition (human PARG; [2]): sub-micromolar; pIC50 (human PARG; [3]): 6.00 to 7.00
13 | Cn1c(=O)c2[nH]c(SCc3ccc(F)cc3)nc2n(C)c1=O [LPF-I-53-1] | 4.19 | – | –
14 | CCOC(=O)CSc1nc2c([nH]1)c(=O)n(C)c(=O)n2C [LPF-I-35-1] | < 4.60 | – | –
15 | Cn1c(=O)c2[nH]c(SCc3ccccc3)nc2n(C)c1=O [LPF-I-51-1] | < 4.60 | – | –
16 | O=C(OC[C@H]1O[C@@H](OC(=O)c2cc(O)c(O)c(OC(=O)c3cc(O)c(O)c(O)c3)c2)[C@H](OC(=O)c2cc(O)c(O)c(OC(=O)c3cc(O)c(O)c(O)c3)c2)[C@@H](OC(=O)c2cc(O)c(O)c(OC(=O)c3cc(O)c(O)c(O)c3)c2)[C@@H]1OC(=O)c1cc(O)c(O)c(OC(=O)c2cc(O)c(O)c(O)c2)c1)c1cc(O)c(O)c(OC(=O)c2cc(O)c(O)c(O)c2)c1 [Gallotannin] | – | – | pIC50 (PARG): > 5.30
17 | O=c1[nH]c2[nH]c(=S)[nH]c(=S)c2[nH]1 [JA2-3] | 7.00 | Yes | IC50 of PARG inhibition (human PARG; [2]): sub-micromolar; pIC50 (human PARG; [3]): 6.00 to 7.00
18 | O=c1[nH][nH]c(=S)c(=O)[nH]1 [Compound 107684] | – | Yes | –
19 | Cn1c(=O)c2[nH]c(SCC(=O)OC(C)(C)C)nc2n(C)c1=O [LPF-I-27-1] | < 4.60 | – | –
20 | Cn1c(=O)c2c(ncn2CCCC(=O)O)n(C)c1=O [JA2-9] | < 4.00 | – | –
21 | Cc1ccc(C2=C(Cl)C(=O)C(c3ccc(C)cc3)=C(Cl)C2=O)cc1 [Compound 121838] | – | Yes | –
22 | FC(F)(F)c1nc2ccc(SSc3ccc4nc(C(F)(F)F)[nH]c4c3)cc2[nH]1 [Compound 659162] | – | Yes | –
23 | O=C1C=CC(=Nc2cccc3c(N=C4C=CC(=O)O4)cccc23)O1 [Compound 69575] | – | Yes | –
24 | Cc1cc(N)c2cc(OCCOc3ccc4nc(C)cc(N)c4c3)ccc2n1 [Compound 22907] | – | Yes | –
25 | Cc1ccc(CSc2nc3c([nH]2)c(=O)n(C)c(=O)n3C)cc1 [LPF-I-64-1] | < 4.60 | – | –
26 | Cc1cc(O)c(-c2cc(O)c(C)cc2O)cc1O [Compound 2805] | – | Yes | –

From patent US12491188B2, “Small molecule PARG inhibitors and methods of use thereof” (Board of Regents, The University of Texas System, priority 2019, dated 2025)
